Results on two molecules are retold here after patent US9844595B2, “Composition comprising a complex of (+)-catechin and amino acid for the treatment and prevention of cancer” (VALORE, priority 2013, dated 2017).

“And” between values parts separate entries of the source, which are not always exact repeats. Identical values can stand only once. Like-named read-outs stand apart in the source and are kept apart here.

For series [1] the following is noted: rats; for Δct measured between the IV and PO data, free (+)-catechin / Δct measured between the IV and PO data, total (+)-catechin: PO vs IV; for plasma concentration (cc) of the free monomeric (+)-catechin / plasma concentration (cc) of the total monomeric (+)-catechin: 25 mg/kg (+)-catechin equivalent. As for the experimental part:
The experimental results described below were obtained on the basis of a study carried out in healthy human beings and in healthy Wistar rats weighing approximately 250 grams.
An acclimation period was observed before beginning the experiments.
The rats received an administration per os of a volume of 5 ml of a solution of active product.
With regard to taking the blood samples from the rats and from the human beings, the blood was collected in tubes internally coated with EDTA and was then centrifuged at 3000 rpm (revolutions per minute) at ambient temperature for 45 min, and then for 15 min at a temperature of 4° C. The plasma was then collected and stored at −70° C. before analysis.
The analytical technique (LC-MS/MS for Liquid Chromatography coupled to tandem Mass Spectrometry) for measuring the active substance in the blood was based on the method described by Mata-Bilbao et al., published in 2007 in the Journal of Agricultural and Food Chemistry, volume 55, page 8857.
The free (+)-catechin was extracted from the plasma with a solution of phosphoric acid, EDTA and ascorbic acid and was then purified by SPE (solid phase extraction); in particular, it is an Oasis™ HLB extraction which is analyzed by LC-MS/MS. The quantification was carried out according to a standard calibration procedure with (+/−)-catechin-2,3,4-^13C3 as internal standard (SI).
The procedure is identical with regard to the extraction and the quantification of free quercetin or ECGC in the blood.
With regard to the extraction and quantification of the total (+)-catechin, the procedure is the same as that applied to the free (+)-catechin, with the exception of the fact that an additional step prior to the purification by SPE is carried out.
(§1) Each of the mixtures is then solubilized in water.
Each of the mixtures is solubilized in water.

Series [2] is classed as in vivo, Wistar rats. The following applies: IV, rats; for plasma concentration (cc) of the free monomeric (+)-catechin / plasma concentration (cc) of the total monomeric (+)-catechin: 25 mg/kg (+)-catechin equivalent.
Excerpt: as §1

Another series has as its system collagen of rat skin. Nature of the series: Total incorporation and incorporation into collagen of 3H-proline in the skin. Type of series: in vivo, Wistar rats. The following applies: 100 mg/kg by gavage, vs control subgroup. As for the experimental part:
To do this, a study was carried out in vivo on a batch of 24 female Wistar rats weighing from 95 to 115 g, divided into two groups C and D, each of 12 rats. For each group, the radioactive 3H-hydroxyproline, the specific activity of which is 13.6 Ci/10-3 mol, was administered to all the animals by intraperitoneal injection of 3H-proline at a dose, relative to the weight of the individuals, of 1 mCi/kg, which represents an activity in terms of radioactive 3H-proline of 100 μCi/individual.
6 rats of each group received a treatment based on monomeric (+)-catechin by gavage in a proportion of 100 mg/kg for 5 days before sacrifice. […] The group C received monomeric (+)-catechin hydrochlorolysinate, while the group D received monomeric (+)-catechin ascorbolysinate.
In table 8, the level of incorporation is measured by the number of disintegrations of the radioactive 3H-hydroxyproline per minute (dpm) per mg of dry weight. The higher this number, the higher the concentration of 3H-hydroxyproline.
In this comparative example, a group E of 12 Wistar rats weighing from 95 to 115 g, in which radioactive 3H-hydroxyproline, the specific activity of which is 13.6 Ci/10-3 mol, was administered to all the individuals by intraperitoneal injection of 3H-proline at a dose, relative to the weight of the individuals, of 1 mCi/kg, which represents an activity in terms of radioactive 3H-proline of 100 μCi/individual.
6 rats of each group received a treatment based on pure monomeric (+)-catechin by gavage in a proportion of 100 mg/kg for 5 days before sacrifice.

Setting [3] is: 25 mg/kg, listed as C:Lys:HCl/1:2:2, 25 mg/kg.
Setting [4] is: free (+)-catechin, per os, dose equivalent to 25 mg/kg (+)-catechin, 5 Wistar rats, pulverulent mixture solubilized in water.

Consider `Cl.Cl.NCCCCC(N)C(=O)O.NCCCCC(N)C(=O)O.Oc1cc(O)c2c(c1)O[C@H](c1ccc(O)c(O)c1)[C@@H](O)C2` [[C:Lys:HCl/1:2:2]], for which the “Δct measured between the IV and PO data, free (+)-catechin” value in series [1] (25 mg/kg, 25 mg/kg) is listed as 88%; in series [1] (setting [3]), “+88%”. In addition, the “Δct measured between the IV and PO data, total (+)-catechin” value in series [1] (25 mg/kg, 25 mg/kg) was 73%; in series [1] (setting [3]), “+73%”. For the same molecule, the “total plasma concentration (ct) of the total monomeric (+)-catechin” value in series [1] (PO, 25 mg/kg) is listed as 479 585 ng min/ml; in series [2] (25 mg/kg), 277 040 ng min/ml. Also, the “plasma concentration (cc) of the free monomeric (+)-catechin” value in series [1] (PO, T 10 min) came to 428 ng/mL; in series [1] (PO, T 30 min), 1027 ng/mL; in series [1] (PO, T 60 min), 1188 ng/mL; in series [1] (PO, T 120 min), 767 ng/mL; in series [1] (PO, T 240 min), 179 ng/mL; in series [2] (T 10 min) it was 3340 ng/mL. Also, the “plasma concentration (cc) of the free monomeric (+)-catechin” value in series [2] (T 30 min) stood at 991 ng/mL; in series [2] (T 60 min), 291 ng/mL; in series [2] (T 120 min), 0 ng/mL; in series [2] (T 240 min), 0 ng/mL. The “plasma concentration (cc) of the total monomeric (+)-catechin” value in series [1] (PO, T 10 min) stood at 1839 ng/mL; in series [1] (PO, T 30 min), 3780 ng/mL; in series [1] (PO, T 60 min), 3190 ng/mL; in series [1] (PO, T 120 min) it was 1990 ng/mL; in series [1] (PO, T 240 min), 475 ng/mL; in series [2] (T 10 min), 8066 ng/mL. The “plasma concentration (cc) of the total monomeric (+)-catechin” value is 2639 ng/mL in series [2] (T 30 min); 1191 ng/mL in series [2] (T 60 min); 340 ng/mL and 338 ng/mL in series [2] (T 120 min, 25 mg/kg); 0 ng/mL in series [2] (T 240 min). In series [1] (setting [4]), the “T (max)” value worked out at 1 h. In series [1] (setting [4]), the “c (max)” value was 1200 ng/mL. In series [2] (25 mg/kg), the “total plasma concentration (ct) of the free monomeric (+)-catechin” value was 87 970 ng min/ml.

Regarding monomeric (+)-catechin ascorbolysinate, the “increase in the level of incorporation” value in the series with collagen of rat skin is listed as “+14%”.
